Reference: patent publication US20070110734A9, “Methods and compositions using cellular asialodeterminants and glycoconjugates for targeting cells to tissues and organs” (Department of Veterans Affairs, Rehabilitation R&D Service, priority 2002, published 2007)

What was measured:
Design in all cases: species or system NOD-SCID mice
[1] = system: human CD34+ (hCD34+) peripheral blood stem cells; experiment: In vivo trafficking of 111In-labeled human CD34+ stem cells (HSC) after glycoprotein infusion, gamma camera imaging; details: for % Infused Cells in Liver/Spleen: 5.75×10^6 HSC preceded by 5.5 mg orosomucoid i.v.; for organ localization of infused hematopoietic (CD34+) stem cells, in words: cells preceded by infusion of the protein, jugular vein, immunodeficient mice
Protocol: Intravenous cannulas were placed into the external jugular vein of NOD-SCID mice under anesthesia (Institutional Animal Care and Use Committee protocol #AM87046-07) to enable the efficient delivery of ^111In-labeled stem cells i.v. Tylenol elixir was administered by mouth after recovery from anesthesia. Briefly radiolabeled CD34+ cells were taken up in 100-250 ul of 5% human plasma albumin in saline and injected into the cannula and then flushed with 50 ul of the albumin-saline. The mice were imaged by nuclear medicine.
Mice: NOD-SCID, female mice (Nonobese diabetic/LtSz-scid/scid) were obtained from the Jackson Laboratory, Bar Harbor, Me. at 1-2 months of age. These animals were maintained in microisolator cages in a special isolator room. The air was HEPA filtered, and the animals were changed in a laminar flow hood within the facility. All food, bedding, and water was sterilized. […] See, e.g. Hogan, et al., Biology of Blood & Marrow Transplantation 3:236-246 (1997); Noort, et al., Bone Marrow Transplantation 22 Suppl 1:S58-60 (1998).
(§1) ^111Indium Oxine Labeling Procedure: ^111In-oxine labeling of adult human CD34+ or mesenchymal stem cells (hMSCs) was performed using a modification of the Amersham Healthcare Procedure for labeling autologous leukocytes.
(§2) Imaging procedures: Nuclear Medicine. NOD-SCID mice were anesthetized using rodent anesthesia cocktail. Once anesthetized, the mice were placed on a foam hemi-cylindrical mouse positioning device (MPD) and covered with a tube sock. The MPD allows better visual separation of the lungs and liver as compared to placing the mouse on a flat surface. The foam on which the mouse was placed, and the tube sock covering maintained a comfortable temperature permitting longer imaging without additional anesthesia. The MPD was placed on a narrow table between the dual heads of a Siemens E.Cam Gamma Camera and imaged statically or dynamically in 2-D or SPECT. ^57Co-Spot Marker is used to mark anatomic positions (nose, tail, cannula, etc.). The data was analyzed using a Siemens ICON system for regions of interest or percent of injected dose (e.g. liver, spleen, heart).
(§3) Gamma camera imaging using a Siemens E. Cam dual head gamma camera monitored the in vivo trafficking patterns of all human stem cells described in the following examples. Mice were placed on a Mouse Positioning Device (MPD) and placed between the detectors on the imaging platform.
5.75×10^6 111In-labeled human CD34+ (hCD34+) peripheral blood stem cells were administered intravenously (i.v.) via an external jugular vein cannula to 2 month old, NOD-SCID, female mice (Non-obese diabetic/LtSz-scid/scid) obtained from the Jackson Laboratory, Bar Harbor, Me. The radiolabeled CD34+ stem cells were administered after pretreatment of the mouse with 3.3 mg of asialoorosomucoid (ASO) i.v. The in vivo trafficking patterns were followed by gamma camera imaging using a Siemens E.Cam dual head gamma camera from immediately after injection up to 36 hr postinfusion. Human CD34+ were isolated from apheresis stem cell collection products derived from deceased cancer patients. They were purified to 95-99% purity using antibody conjugated to CD34 conjugated to magnetics beads (MACS) separation columns; Miltenyi Biotec, Auburn, Calif. and cryopreserved.
5.75×10^6 111In-labeled human CD34+ (hCD34+) peripheral blood stem cells were administered intravenously (i.v.) via an external jugular vein cannula to 2 month old, NOD-SCID, female mice (Non-obese diabetic/LtSz-scid/scid) obtained from the Jackson Laboratory, Bar Harbor, Me. The radiolabeled CD34+ stem cells were administered after pretreatment of the mouse with 5.5 mg of orosomucoid (O) i.v.
The preparation and procedures set forth in Example I were repeated. […]

[2] = system: human mesenchymal stem cells (MSC); experiment: In vivo trafficking of 111In-labeled human mesenchymal stem cells (MSC) after glycoprotein infusion, gamma camera imaging; details: for % Infused Cells in Heart: 0.56×10^6 MSC preceded by 11 mg orosomucoid i.v.
Protocol: Human mesenchymal stem cells (hMSCs; PT-2501) obtained through a FDA monitored paid bone marrow donor program were purchased from Poietics Technologies, BioWhittaker (Walkerville, Md.). The cells were thawed according to manufacturer recommendations, resuspended, and radiolabeled in Mesenchymal Stem Cell Basal Medium (MSCBM).
as §1, §2, §3
MSC were obtained from BioWhittaker, (Poietics Division, cryopreserved PT-2501 >750,000 cells per ampoule) and labeled with ^111In as in previous examples, except that the MSC were labeled, washed, and injected in Basal Stem Cell Medium (Poietics) containing 5% human serum albumin (HSA). 0.56×10^6 111In labeled, human mesenchymal stem cells (MSC) were administered via an implanted Da Vinci Microport Vascular System cannula in the external jugular vein of a two-month old, female NOD-SCID mouse in 0.21 ml of basal stem cell medium containing 5% human serum albumin (HSA). Immediately prior to administration of MSC, 11.0 mg of orosomucoid was administered i.v. in 0.2 ml.
0.56×10^6 “In-labeled, MSC were administered i.v. in 0.21 ml of basal stem cell medium containing 5% human serum albumin (HSA). Prior to administration of MSC, 0.1 ml containing 4.3 mg of ASO, followed by 0.1 ml containing 5.5 mg orosomucoid were administered i.v. The ASO, orosomucoid and MSC were administered via an implanted Da Vinci Microport Vascular system cannula in the external jugular vein of a two-month old, female NOD-SCID mouse.

[3] = system: human CD34+ (hCD34+) peripheral blood stem cells; experiment: In vivo trafficking of 111In-labeled human CD34+ stem cells (HSC) after glycoprotein infusion, gamma camera imaging; details: 0.5×10^6 HSC preceded by 11 mg orosomucoid i.v.

Substance: alpha-(1)-acid glycoprotein [Orosomucoid]
- 111In-labeled cells in the region of the heart, in words ([1]; 5.75×10^6 HSC after 5.5 mg orosomucoid i.v., up to 36 hours): No ^111In-labeled cells were found in the region of the heart
- % Infused Cells in Liver/Spleen ([1]; 1.5 hr): 74 ± 4% at 1.5 hr
- % Infused Cells in Liver/Spleen ([1]; 1.5 hr, listed as orosomucoid): 74±4%
- % Infused Cells in Liver/Spleen ([1]; 24 hr): 63 ± 1% at 24 hr
- % Infused Cells in Liver/Spleen ([1]; 24 hr, listed as O): 63.6%
- % Infused Cells in Liver/Spleen ([1]; 24 hr, listed as orosomucoid): 63±1%
- % Infused Cells in Liver/Spleen ([1]; immediately after infusion (0 hr)): 74 ± 3% at 0 hr
- % Infused Cells in Liver/Spleen ([1]; immediately after infusion (0 hr), listed as O): 76.3%
- % Infused Cells in Liver/Spleen ([1]; immediately after infusion (0 hr), listed as orosomucoid): 74±3%
- organ localization of infused hematopoietic (CD34+) stem cells, in words ([1]; listed as O): migrated immediately to the liver/spleen area
- organ localization of infused hematopoietic (CD34+) stem cells, in words ([1]; listed as orosomucoid (O)): localize in the liver
- % Infused Cells in Heart ([2]; 0 hr): 68 ± 7% at 0 hr
- % Infused Cells in Heart ([2]; 0 hr, listed as orosomucoid): 68±7%
- % Infused Cells in Heart ([2]; 1 hr): 61 ± 3% at 1 hr
- % Infused Cells in Heart ([2]; 1 hr, listed as orosomucoid): 61±3%
- organ localization of infused mesenchymal stem cells, in words ([2]; cells preceded by infusion of the protein, jugular vein, immunodeficient mice): predominantly localize in the heart
- % of infused cells in the liver region ([3]; 1 hr): 40±3%
- % of infused cells in the liver and spleen ([3]; immediately after infusion): 43±2%
